The nature of data set [1]: Selective index, ratio of CC50 for human MT4 cells to EC50 for HIV1 3B.
A short description of data set [2]: Cytotoxicity against human MT4 cells as reduction in cell viability after 5 days by MTT assay. Type of data set: cell-based.

A value given as a limit tells only on which side of the number the result lay.

For `CC(C)Nc1cccnc1N1CCN(C(=O)c2cc3cc(NS(C)(=O)=O)ccc3[nH]2)CC1` [DELAVIRDINE], the “Ratio CC50/EC50” value in data set [1] is reported as over 12. In data set [2], this compound came in with a CC50 at 120 h of over 3.83 µM. On the same counts, the results for `O=C1Nc2ccc(Cl)cc2[C@@](C#CC2CC2)(C(F)(F)F)O1` [EFAVIRENZ] are over 1434 and over 6.34 µM.

Regarding `Cc1ccnc2c1NC(=O)c1cccnc1N2C1CC1` [NEVIRAPINE], the CC50 at 120 h in data set [2] was over 15 µM. As for `Cc1cn([C@H]2C[C@H](N=[N+]=[N-])[C@@H](CO)O2)c(=O)[nH]c1=O` [ZIDOVUDINE], the “Ratio CC50/EC50” value in data set [1] is over 6192. The CC50 at 120 h in data set [2] is over 93.5 µM.

For orientation: CC50 means the concentration giving 50% cytotoxicity. A low value points to harm at low concentration.

The values above are taken from ChEMBL document CHEMBL1155290, “Synthesis and anti-HIV activity evaluation of 2-(4-(naphthalen-2-yl)-1,2,3-thiadiazol-5-ylthio)-N-acetamides as novel non-nucleoside HIV-1 reverse transcriptase inhibitors” (Eur J Med Chem, 2009).
